# Laboratory results reported in patent publication US10947254B2, “Methods for treating ulcerative colitis using 3-((1R,3s,5S)-3-((7-((5-methyl-1H-pyrazol-3-yl)amino)-1,6-naphthyridin-5-yl)amino)-8-azabicyclo[3.2.1]octan-8-yl)propanenitrile” (priority 2015, dated 2021).
# How the values were obtained:
# [1] = test system: IL-13 induced STAT6 phosphorylation in BEAS-2B human lung epithelial cells; details: BEAS-2B cells
# [2] = test system: IL-4 induced STAT6 phosphorylation in THP-1 human monocytic cells; details: THP-1 cells
SMILES,BEAS2B pIC50 [1],THP-1 IL4 pIC50 [2]
Cc1cc(Nc2cc3ncccc3c(N[C@@H]3C[C@H]4CCC[C@@H](C3)N4C(=O)c3ccccc3)n2)n[nH]1 [Example 2-25],A (A represents a pEC50 value ≥7.5 (EC50≤32 nM)),A (A represents a pEC50 value ≥7.5 (EC50≤32 nM))
C=CCOC(=O)N1[C@@H]2CC[C@H]1C[C@H](Nc1nc(Nc3cc(C)[nH]n3)cc3nc(OC)ccc13)C2 [Example 5-7],A (A represents a pEC50 value ≥7.5 (EC50≤32 nM)),–
Cc1cc(Nc2cc3ncccc3c(N[C@@H]3C[C@H]4CCC[C@@H](C3)N4CCC#N)n2)n[nH]1 [Example 1-31],A (A represents a pEC50 value ≥7.5 (EC50≤32 nM)),A (A represents a pEC50 value ≥7.5 (EC50≤32 nM))
Cc1cc(Nc2cc3ncccc3c(N[C@@H]3C[C@H]4CCC[C@@H](C3)N4S(=O)(=O)N3CCCC3)n2)n[nH]1 [Example 4-27],A (A represents a pEC50 value ≥7.5 (EC50≤32 nM)),A (A represents a pEC50 value ≥7.5 (EC50≤32 nM))
COc1cnc2cc(Nc3cc(C)[nH]n3)nc(N[C@@H]3C[C@H]4CC[C@@H](C3)N4C(=O)OCC(C)C)c2c1 [Example 6-25],A (A represents a pEC50 value ≥7.5 (EC50≤32 nM)),–
COC(=O)c1cnc2cc(Nc3cc(C)[nH]n3)nc(N[C@@H]3C[C@H]4CCC[C@@H](C3)N4CCC#N)c2c1 [Example 6-47],A (A represents a pEC50 value ≥7.5 (EC50≤32 nM)),A (A represents a pEC50 value ≥7.5 (EC50≤32 nM))
Cc1cc(Nc2nc(N[C@@H]3C[C@H]4CCC[C@@H](C3)N4S(C)(=O)=O)c3cccnc3c2F)n[nH]1 [Example 8-10],A (A represents a pEC50 value ≥7.5 (EC50≤32 nM)),A (A represents a pEC50 value ≥7.5 (EC50≤32 nM))
CCC1(S(=O)(=O)N2[C@@H]3CCC[C@H]2C[C@H](Nc2nc(Nc4cc(C)[nH]n4)cc4ncccc24)C3)CC1 [Example 4-20],A (A represents a pEC50 value ≥7.5 (EC50≤32 nM)),A (A represents a pEC50 value ≥7.5 (EC50≤32 nM))
COc1ccc2c(N[C@@H]3C[C@H]4CC[C@@H](C3)N4CCCC#N)nc(Nc3cc(C)[nH]n3)cc2n1 [Example 5-2],A (A represents a pEC50 value ≥7.5 (EC50≤32 nM)),–
COc1ccc2c(N[C@@H]3C[C@H]4CC[C@@H](C3)N4CCC#N)nc(Nc3cc(C)[nH]n3)cc2n1 [Example 5-8],A (A represents a pEC50 value ≥7.5 (EC50≤32 nM)),A (A represents a pEC50 value ≥7.5 (EC50≤32 nM))
Cc1cc(Nc2cc3nc(CN4CCOCC4)ccc3c(N[C@@H]3C[C@H]4CCC[C@@H](C3)N4S(=O)(=O)c3cccnc3)n2)n[nH]1 [Example 5-27],A (A represents a pEC50 value ≥7.5 (EC50≤32 nM)),A (A represents a pEC50 value ≥7.5 (EC50≤32 nM))
CCC(CC#N)N1[C@@H]2CC[C@H]1C[C@H](Nc1nc(Nc3cc(C)[nH]n3)cc3ncccc13)C2 (some centres unmarked) [Example 1-22],A (A represents a pEC50 value ≥7.5 (EC50≤32 nM)),–
Cc1cc(Nc2cc3ncccc3c(N[C@@H]3C[C@H]4CCC[C@@H](C3)N4C(=O)c3cncc(C#N)c3)n2)n[nH]1 [Example 2-26],C (C represents a pEC50 value <6.7 (EC50>200 nM)),–
Cc1cc(Nc2cc3ncccc3c(N[C@@H]3C[C@H]4CC[C@@H](C3)N4C(=O)C(C)F)n2)n[nH]1 (some centres unmarked) [Example 2-3],A (A represents a pEC50 value ≥7.5 (EC50≤32 nM)),–
Cc1cc(Nc2nc(N[C@@H]3C[C@H]4CCC[C@@H](C3)N4S(=O)(=O)c3cncc(F)c3)c3cccnc3c2F)n[nH]1 [Example 8-13],A (A represents a pEC50 value ≥7.5 (EC50≤32 nM)),–
Cc1cc(Nc2cc3ncccc3c(N[C@@H]3C[C@H]4CCC[C@@H](C3)N4C(=O)c3ccnc(C#N)c3)n2)n[nH]1 [Example 2-30],C (C represents a pEC50 value <6.7 (EC50>200 nM)),–
Cc1cc(Nc2nc(N[C@@H]3C[C@H]4CCC[C@@H](C3)N4S(=O)(=O)c3ccccc3)c3cccnc3c2F)n[nH]1 [Example 8-11],A (A represents a pEC50 value ≥7.5 (EC50≤32 nM)),–

SMILES,BEAS2B pIC50 [1],THP-1 IL4 pIC50 [2]
Cc1cc(Nc2cc3ncccc3c(N[C@@H]3C[C@H]4CCC[C@@H](C3)N4C(=O)c3ccc(C#N)nc3)n2)n[nH]1 [Example 2-28],C (C represents a pEC50 value <6.7 (EC50>200 nM)),–
C=CCOC(=O)N1[C@@H]2CC[C@H]1C[C@H](Nc1nc(Nc3cc(C)[nH]n3)cc3nc(CN4CCOCC4)ccc13)C2 [Example 5-17],A (A represents a pEC50 value ≥7.5 (EC50≤32 nM)),–
Cc1cc(Nc2cc3ncc(S(C)(=O)=O)cc3c(N[C@@H]3C[C@H]4CC[C@@H](C3)N4Cc3ccncc3)n2)n[nH]1 [Example 6-59],C (C represents a pEC50 value <6.7 (EC50>200 nM)),–
COc1ccnc2cc(Nc3cc(C)[nH]n3)nc(N[C@@H]3C[C@H]4CC[C@@H](C3)N4C(=O)CN(C)C)c12 [Example 7-3],–,C (C represents a pEC50 value <6.7 (EC50>200 nM))
CCC(=O)N1[C@@H]2CCC[C@H]1C[C@H](Nc1nc(Nc3cc(C)[nH]n3)cc3ncccc13)C2 [Example 2-15],–,A (A represents a pEC50 value ≥7.5 (EC50≤32 nM))
Cc1cc(Nc2nc(N[C@@H]3C[C@H]4CC[C@@H](C3)N4S(=O)(=O)c3cncc(F)c3)c3cccnc3c2F)n[nH]1 [Example 8-5],A (A represents a pEC50 value ≥7.5 (EC50≤32 nM)),–
Cc1cc(Nc2cc3ncccc3c(N[C@@H]3C[C@H]4CC[C@@H](C3)N4CCCF)n2)n[nH]1 [Example 1-9],–,C (C represents a pEC50 value <6.7 (EC50>200 nM))
COc1ccnc2cc(Nc3cc(C)[nH]n3)nc(N[C@@H]3C[C@H]4CC[C@@H](C3)N4CCC#N)c12 [Example 7-6],–,A (A represents a pEC50 value ≥7.5 (EC50≤32 nM))
CCOCC(=O)N1[C@@H]2CC[C@H]1C[C@H](Nc1nc(Nc3cc(C)[nH]n3)cc3ncccc13)C2 [Example 2-4],–,C (C represents a pEC50 value <6.7 (EC50>200 nM))
Cc1cc(Nc2cc3ncccc3c(N[C@@H]3C[C@H]4CC[C@@H](C3)N4CC(N)=O)n2)n[nH]1 [Example 1-6],–,C (C represents a pEC50 value <6.7 (EC50>200 nM))
Cc1cc(Nc2cc3ncccc3c(N[C@@H]3C[C@H]4CCC[C@@H](C3)N4CC(=O)N[C@H]3CCOC3=O)n2)n[nH]1 [Example 1-42],–,C (C represents a pEC50 value <6.7 (EC50>200 nM))
Cc1cc(Nc2cc3ncccc3c(N[C@@H]3C[C@H]4CC[C@@H](C3)N4CC(=O)N[C@H]3CCOC3=O)n2)n[nH]1 [Example 1-12],–,C (C represents a pEC50 value <6.7 (EC50>200 nM))
Cc1cc(Nc2cc3ncccc3c(N[C@@H]3C[C@H]4CC[C@@H](C3)N4CC(=O)N(C)C)n2)n[nH]1 [Example 1-8],–,C (C represents a pEC50 value <6.7 (EC50>200 nM))
Cc1ccc(S(=O)(=O)N2[C@@H]3CCC[C@H]2C[C@H](Nc2nc(Nc4cc(C)[nH]n4)cc4ncccc24)C3)cn1 [Example 4-25],–,A (A represents a pEC50 value ≥7.5 (EC50≤32 nM))
Cc1cc(Nc2cc3nc(CN4CCOCC4)ccc3c(N[C@@H]3C[C@H]4CCC[C@@H](C3)N4S(C)(=O)=O)n2)n[nH]1 [Example 5-22],A (A represents a pEC50 value ≥7.5 (EC50≤32 nM)),–
Cc1cc(Nc2cc3nc(CS(C)(=O)=O)ccc3c(N[C@@H]3C[C@H]4CC[C@@H](C3)N4CCF)n2)n[nH]1 [Example 5-41],–,C (C represents a pEC50 value <6.7 (EC50>200 nM))
